Experimental data taken from patent US10351586B2, “Cytidine derivative dimers and applications thereof” (CHANGZHOU FANGYUAN PHARMACEUTICAL CO., LTD, priority 2014, dated 2019).
Marks after values point to notes of the source that are not given here.

Assays:
[1] = test system: HCT-116 human colon cancer xenografts; test: Tumor growth inhibition of HCT-116 human colon cancer xenografts in nude mice; format: in vivo, Balb/c nude mice; details: for Relative tumor proliferation rate (T/C %) / Relative tumor volume (RTV) / Tumor growth inhibition rate (TGI %) / Tumor volume of HCT-116 human colon cancer xenografts: single IP injection (QD×1), D1 and D2 400 mg/kg, D3 350 mg/kg, D4 300 mg/kg; for Tumor volume of HCT-116 human colon cancer xenografts: Mean±SEM
Experimental: 2. Preparation of the test substance was performed by dissolving the test substance using the following solvents:
3. Animal experiments were performed. […] Animals were numbered using their tail number.
4.1 Tumor cells were human HCT-116 colon cancer cells purchased from the Institute of Cell Biology, Chinese Academy of Sciences (Beijing, China). F-12 medium (containing 10% FBS) was used to culture cells in a carbon dioxide incubator at about 37° C., saturated humidity, under 5% CO2 and 95% air. Before inoculation, cells in logarithmic growth phase were collected. After digested by 0.25% trypsin, the cells were washed with PBS once. The cells were resuspended with serum-free medium and counted. Serum-free medium were used for cell resuspension, until the cell concentration was adjusted to about 3×10^7 cell/mL.
4.2 Animal inoculation and grouping were performed.
The diameters (D) of the tumor nodules were measured three times a week with a circle sizer ruler. In addition, the following formula was applied to calculate the volume of the tumor nodules (V): V=[…](D/2)^3 generally for a spherical shape. Evaluation indexes of antitumor activity were tumor growth inhibition rate TGI (%) and relative tumor proliferation rate T/C (%).
The calculation formula of TGI was: TGI (%)=(Vcontrol−VTreatment)/Vcontrol)×100%. The relative tumor volume (RTV) was calculated by: RTV=Vt/V0, where V0 is the tumor volume at the time of group administration, and Vt is the tumor volume at the time of measurement.
The mice were weighed 3 times every week.
4.5 Data and statistical analysis were provided.

[2] = Body weight / toxicity of a single intraperitoneal injection in HCT-116 colon tumor-bearing nude mice; details: D3 350 mg/kg, D4 300 mg/kg; for Average rate of weight change of the animals / Average weight of the animals: single IP injection (QD×1), D1 and D2 400 mg/kg; for Average weight of the animals: Mean±SEM
Experimental: Corresponding test substance was weighed and put into a 5 mL glass tube. The test substance was dissolved in ethanol under the stirring by a 5 mm magnetic stirrer. After a complete dissolution, Cremophor EL was added with continuous stirring. Immediately prior to the user of the test substance, the labeled amount of physiological saline was added and stirred.
Animal experiments were performed. The animals were female Balb/c nude mice at specific pathogen free (SPF) level and were supplied from Shanghai Sippr/BK Lab Animal Ltd. (Shanghai, China). […] These animals were at the age of about 7 weeks to about 9 weeks at the beginning of the experiments and had the weight of about 18 grams to about 22 grams at the beginning of the experiment. The animals had acclimatization duration of about 5 days to about 7 days. Animals were numbered using their tail number. The animal room was maintained at about 23±2° C., 40%-70% humidity, with alternating light and dark every 12 hours.
4.2 Animal inoculation and grouping were performed. Under aseptic conditions, each nude mice was injected with 0.1 mL cell suspension into the right hind leg subcutaneously (3×10^6 cell/mouse). When the size of the tumor grew to have a volume of about 60-150 mm^3, nude mice with a similar tumor size and a desirable shape (e.g., with substantially same shape such as a substantially spherical shape, without having irregular shapes or multiple tumors grouped together) were selected and grouped. In the experiment, there were six mice in each group.
The mice in control group were injected with a mixed solution including ethanol, Cremophor EL and normal saline at a ratio of 5:5:90.
4.4 Clinical symptoms were provided. All clinical symptoms of each animal were recorded at the beginning of the experiments and during the experiments. The observation was performed at the same time every day.
After administration of the test substance, when the weight reduction was >20%, when the animal was dying, or when the tumor volume exceeds about 2800 mm^3, the animal were euthanized by applying CO2. The tumor was separated and weighed, an autopsy was performed, and visual inspection was conducted and recorded on whether there were pathological changes in the organs.

[3] = D1 400 mg/kg Day 7, D2 400 mg/kg Day 9, D3 350 mg/kg Day 11, D4 300 mg/kg Day 11, single IP

SMILES: CCCCOC(=O)Nc1ccn(C2OC(COC(=O)CCC(=O)OC[C@H]3O[C@@H](n4ccc(NC(=O)OCc5ccccc5)nc4=O)C(F)(F)[C@@H]3O)C(O)C2(F)F)c(=O)n1 (stereo in doubt) [Compound D4, 1-O-(4-N-(Benzyloxycarbonyl)-gemcitabine)-4-O-(4-N-(n-Butoxycarbonyl)-gemcitabine)-succinate]
- Relative tumor proliferation rate, minimum [1, 3]: 25.94%
- Tumor inhibition rate, maximum [1, 3]: 97.32%
- Relative tumor proliferation rate (T/C %) ([1]; Day 0): 0.00%
- Relative tumor volume (RTV) ([1]; Day 0): 1.00
- Tumor growth inhibition rate (TGI %) ([1]; Day 0): 0.00%
- Tumor volume of HCT-116 human colon cancer xenografts ([1]; Day 0): 44.09 ± 5.99** mm^3
- Relative tumor proliferation rate (T/C %) ([1]; Day 1): 77.07%
- Relative tumor volume (RTV) ([1]; Day 1): 1.12 ± 0.12
- Tumor growth inhibition rate (TGI %) ([1]; Day 1): 71.17%
- Tumor volume of HCT-116 human colon cancer xenografts ([1]; Day 1): 52.03 ± 12.91** mm^3
- Relative tumor proliferation rate (T/C %) ([1]; Day 2): 66.48%
- Relative tumor volume (RTV) ([1]; Day 2): 1.12 ± 0.12
- Tumor growth inhibition rate (TGI %) ([1]; Day 2): 76.55%
- Tumor volume of HCT-116 human colon cancer xenografts ([1]; Day 2): 52.03 ± 12.91** mm^3
- Relative tumor proliferation rate (T/C %) ([1]; Day 4): 43.31%
- Relative tumor volume (RTV) ([1]; Day 4): 0.79 ± 0.11
- Tumor growth inhibition rate (TGI %) ([1]; Day 4): 87.42%
- Tumor volume of HCT-116 human colon cancer xenografts ([1]; Day 4): 37.37 ± 10.46** mm^3
- Relative tumor proliferation rate (T/C %) ([1]; Day 7): 31.86%
- Relative tumor volume (RTV) ([1]; Day 7): 0.55 ± 0.10
- Tumor growth inhibition rate (TGI %) ([1]; Day 7): 94.11%
- Tumor volume of HCT-116 human colon cancer xenografts ([1]; Day 7): 25.46 ± 8.17** mm^3
- Relative tumor proliferation rate (T/C %) ([1]; Day 9): 30.55%
- Relative tumor volume (RTV) ([1]; Day 9): 0.55 ± 0.12
- Tumor growth inhibition rate (TGI %) ([1]; Day 9): 96.19%
- Tumor volume of HCT-116 human colon cancer xenografts ([1]; Day 9): 22.50 ± 5.31** mm^3
- Relative tumor proliferation rate (T/C %) ([1]; Day 11): 25.94%
- Relative tumor volume (RTV) ([1]; Day 11): 0.69 ± 0.20
- Tumor growth inhibition rate (TGI %) ([1]; Day 11): 97.32%
- Tumor volume of HCT-116 human colon cancer xenografts ([1]; Day 11): 26.19 ± 5.79** mm^3
- Relative tumor proliferation rate (T/C %) ([1]; Day 14): 32.83%
- Relative tumor volume (RTV) ([1]; Day 14): 1.81 ± 0.54
- Tumor growth inhibition rate (TGI %) ([1]; Day 14): 95.12%
- Tumor volume of HCT-116 human colon cancer xenografts ([1]; Day 14): 70.28 ± 18.37** mm^3
- Relative tumor proliferation rate (T/C %) ([1]; Day 16): 37.96%
- Relative tumor volume (RTV) ([1]; Day 16): 3.29 ± 0.82
- Tumor growth inhibition rate (TGI %) ([1]; Day 16): 92.12%
- Tumor volume of HCT-116 human colon cancer xenografts ([1]; Day 16): 142.77 ± 49.34** mm^3
- Relative tumor proliferation rate (T/C %) ([1]; Day 18): 26.76%
- Relative tumor volume (RTV) ([1]; Day 18): 5.11 ± 1.12
- Tumor growth inhibition rate (TGI %) ([1]; Day 18): 88.56%
- Tumor volume of HCT-116 human colon cancer xenografts ([1]; Day 18): 228.58 ± 76.92** mm^3
- Relative tumor proliferation rate (T/C %) ([1]; Day 21): 37.28%
- Relative tumor volume (RTV) ([1]; Day 21): 8.73 ± 1.39
- Tumor growth inhibition rate (TGI %) ([1]; Day 21): 84.66%
- Tumor volume of HCT-116 human colon cancer xenografts ([1]; Day 21): 375.06 ± 86.27 mm^3
- Relative tumor proliferation rate (T/C %) ([1]; Day 23): 50.04%
- Relative tumor volume (RTV) ([1]; Day 23): 9.89 ± 1.30
- Tumor growth inhibition rate (TGI %) ([1]; Day 23): 82.19%
- Tumor volume of HCT-116 human colon cancer xenografts ([1]; Day 23): 420.73 ± 76.08 mm^3
- Relative tumor proliferation rate (T/C %) ([1]; Day 25): 53.68%
- Relative tumor volume (RTV) ([1]; Day 25): 11.61 ± 1.51
- Tumor growth inhibition rate (TGI %) ([1]; Day 25): 80.98%
- Tumor volume of HCT-116 human colon cancer xenografts ([1]; Day 25): 491.29 ± 83.78 mm^3
- Relative tumor proliferation rate (T/C %) ([1]; Day 28): 69.72%
- Relative tumor volume (RTV) ([1]; Day 28): 14.73 ± 2.18
- Tumor growth inhibition rate (TGI %) ([1]; Day 28): 77.39%
- Tumor volume of HCT-116 human colon cancer xenografts ([1]; Day 28): 608.08 ± 85.37 mm^3
- Relative tumor proliferation rate (T/C %) ([1]; Day 30): 76.91%
- Relative tumor volume (RTV) ([1]; Day 30): 19.08 ± 2.98
- Tumor growth inhibition rate (TGI %) ([1]; Day 30): 72.14%
- Tumor volume of HCT-116 human colon cancer xenografts ([1]; Day 30): 781.78 ± 105.33 mm^3
- Inhibition of growth of HCT-116 human colon cancer xenografts (in words) ([1]; single IP injection, 300-400 mg/kg): higher tumor inhibition rates
- Average rate of weight change of the animals ([2]; Day 0): 0.00%
- Average weight of the animals ([2]; Day 0): 20.15 ± 0.29 g
- Average rate of weight change of the animals ([2]; Day 1): −1.17 ± 1.27%
- Average weight of the animals ([2]; Day 1): 19.90 ± 0.19 g
- Average rate of weight change of the animals ([2]; Day 2): −8.18 ± 1.56 %
- Average weight of the animals ([2]; Day 2): 18.48 ± 0.2 g
- Average rate of weight change of the animals ([2]; Day 4): −5.33 ± 1.78%
- Average weight of the animals ([2]; Day 4): 19.07 ± 0.36 g
- Average rate of weight change of the animals ([2]; Day 7): −1.43 ± 1.92%
- Average weight of the animals ([2]; Day 7): 19.85 ± 0.38 g
- Average rate of weight change of the animals ([2]; Day 9): 2.91 ± 0.55 %
- Average weight of the animals ([2]; Day 9): 20.73 ± 0.29 g
- Average rate of weight change of the animals ([2]; Day 11): 4.47 ± 0.52 %
- Average weight of the animals ([2]; Day 11): 21.05 ± 0.31 g
- Average rate of weight change of the animals ([2]; Day 14): 3.72 ± 0.73 %
- Average weight of the animals ([2]; Day 14): 20.90 ± 0.34 g
- Average rate of weight change of the animals ([2]; Day 16): 6.62 ± 0.79 %
- Average weight of the animals ([2]; Day 16): 21.48 ± 0.34 g
- Average rate of weight change of the animals ([2]; Day 18): 8.99 ± 1.38 %
- Average weight of the animals ([2]; Day 18): 21.95 ± 0.27 g
- Average rate of weight change of the animals ([2]; Day 21): 7.41 ± 1.37 %
- Average weight of the animals ([2]; Day 21): 21.63 ± 0.30 g
- Average rate of weight change of the animals ([2]; Day 23): 9.37 ± 1.82 %
- Average weight of the animals ([2]; Day 23): 22.03 ± 0.43 g
- Average rate of weight change of the animals ([2]; Day 25): 10.69 ± 2.14 %
- Average weight of the animals ([2]; Day 25): 22.30 ± 0.49 g
- Average rate of weight change of the animals ([2]; Day 28): 8.62 ± 2.68%
- Average weight of the animals ([2]; Day 28): 21.88 ± 0.59 g
- Average rate of weight change of the animals ([2]; Day 30): 9.36 ± 2.21%
- Average weight of the animals ([2]; Day 30): 22.03 ± 0.53 g
- Toxicity in tumor-bearing mice (in words) ([2]; single IP injection, D2 400 mg/kg, judged from body weight versus control): no toxicity
